The results in this text go back to publication PMC4602143, “A combined bioinformatics and functional metagenomics approach to discovering lipolytic biocatalysts” (Frontiers in Microbiology, 2015).

Read-outs that look alike come from different tables or passages of the source.

The assay relates to T1, PL-GOS.
T1 construct: synthetic gene; N-terminal His6 with TEV site, tag cut by TEV protease; E. coli BL21(DE3) strain TMBL1503, pET-11a
As to the kind of experiment: pNP release, OD405, Lineweaver-Burk. It is filed as biochemical, metagenome: ocean surface water (Global Ocean Sampling). The conditions noted are these: 50 mM Tris-HCl pH 7.3, 20°C, 65 nM enzyme. An excerpt: pNP release, OD405, Lineweaver-Burk on PL-GOS

Take `CCCC(=O)Oc1ccc([N+](=O)[O-])cc1` [pNP-butyrate]: the Km (read-out: pNP-butyrate) stood at 66.7 µM.
Regarding `CCCCCCCCCCCCCCCC(=O)Oc1ccc([N+](=O)[O-])cc1` [pNP-palmitate], the Km (substrate above 20 μM (non-Michaelis-Menten below), read-out: pNP-palmitate) worked out at 68.1 µM.
